Kd data for 1 molecule are collected here from ChEMBL document CHEMBL6153149, “Cyclic Peptides Targeting Granzyme B: Potential Applications as PET Imaging Agents” (ACS Med Chem Lett, 2025).

The target in the experiment is Granzyme B (Homo sapiens, UniProt P10144). As to the kind of experiment: Binding affinity to human granzyme B assessed as equilibrium dissociation constant by SPR method.

Bridge positions count the residues as written; N and C are the ends. Square brackets hold non-standard residues; d marks the D form. Peptide text beside a SMILES is read from it. * marks the point of attachment. X1 = O=C(O)CN1CCN(CC(=O)O)CC(Cc2ccc(NC(=S)*)cc2)N(CC(=O)O)CC1; NMeF = CN[C@@H](Cc1ccccc1)C(=O)O

Chain of Granzyme B (P10144 whole entry): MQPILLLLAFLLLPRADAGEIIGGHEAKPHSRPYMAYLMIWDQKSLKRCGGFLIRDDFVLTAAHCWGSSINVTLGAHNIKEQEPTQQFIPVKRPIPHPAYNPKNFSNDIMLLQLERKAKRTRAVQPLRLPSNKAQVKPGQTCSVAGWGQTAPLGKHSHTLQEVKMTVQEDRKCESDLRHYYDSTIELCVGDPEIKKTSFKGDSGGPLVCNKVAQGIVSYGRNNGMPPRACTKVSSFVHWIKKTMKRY

Regarding `CC(C)[C@@H]1NC(=O)[C@H](CC(=O)O)NC(=O)[C@H](Cc2ccc(O)cc2)NC(=O)[C@H](Cc2ccc(O)cc2)NC(=O)[C@H](Cc2ccccc2)N(C)C(=O)[C@H](Cc2ccccc2)N(C)C(=O)[C@H](Cc2ccccc2)NC(=O)CSC[C@@H](C(=O)NCC(=O)NCC(=O)N[C@@H](CCCCNC(=S)Nc2ccc(CC3CN(CC(=O)O)CCN(CC(=O)O)CCN3CC(=O)O)cc2)C(N)=O)NC(=O)[C@H](Cc2c[nH]cn2)NC(=O)[C@H](Cc2ccccc2)N(C)C(=O)[C@H](Cc2ccc(O)cc2)NC(=O)[C@H](C(C)C)NC(=O)[C@H](CC(=O)O)NC(=O)[C@H](C(C)C)NC(=O)[C@H](CC(=O)O)NC1=O` (stereo partly specified) ({CH2CO}-F[NMeF][NMeF]YYDVDVDVY[NMeF]HCGGK(X1)-NH2; thioether N-15), the Kd amounted to 1.1 nM.

A word on the Kd: it is the equilibrium constant for the complex coming apart.
